# Measured values reported in PubChem BioAssay AID652121 (NMMLSC, 2013).
# pEC50: −log10 of the molar value. Active and inactive are the calls of the source.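 How the source made its calls: active means at least 15% of live cells showing both differentiation markers at top dose, and half-maximal dose below 10 µM; inactive means the rest.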
# Legend:
# [1] = system: ER-HoxA9 myeloid progenitors, GFP+/MAC1+ differentiation flow cytometry; test: GFP+/MAC1+ double-positive induction in arrested progenitors – HOXA9ER cells, flow cytometry, Powder Set01 subset01, dose response (AID 652121)
# [2] = as above; conditions: ER-HoxA9 myeloid progenitors, GFP+/MAC1+ differentiation flow cytometry; at 10 µM (top of the series)
Structure (SMILES),pEC50 [1],percent double positive differentiation [2]
Cc1ccc(Nc2nc(=O)c3cccnc3s2)c(Br)c1,5.74,
O=C(CCNC(=O)c1ccc(Cl)cc1)NC1CCCc2ccccc21 (stereo not drawn),,44% (inactive)
O=C(O)c1cccnc1Nc1ccc(Cl)cc1,,28.8% (inactive)
